Assays:
in vitro = settings: dog, TOX MDCK CC50
[1] = tested on: influenza virus A/Taiwan/1/86 (H1N1); assay: organism not typed; type: cell-based; settings: CPE in MDCK cells, three days post-virus exposure, ATPlite

Row | SMILES | CC50 at 3 days (in vitro) [nM] | IC50 ([1]; MDCK, 72 h) [nM] | IC50 [1] [nM]
1 | O=C(N[C@@H]1CCC[C@H](Nc2nc(-c3c[nH]c4c(F)cc(F)cc34)ncc2F)C1)N1CCCC1 (racemic) [Compound 1, N-((cis)-3-((2-(5,7-difluoro-1H-indol-3-yl)-5-fluoropyrimidin-4-yl)amino)cyclohexyl)pyrrolidine-1-carboxamide] | 10200 | 3 | –
2 | CC(C)(C)C(CC(=O)O)Nc1nc(-c2c[nH]c3c(F)cc(F)cc23)ncc1F (racemic) [Compound 2] | 5200 | 11 | –
3 | Cn1cnc(C(=O)N[C@@H]2CCC[C@H](Nc3nc(-c4c[nH]c5c(F)cc(F)cc45)c(C#N)cc3F)C2)c1 (racemic) [Compound 3] | > 25000 | 5 | –
4 | N#Cc1cc(F)c(N[C@H]2CCC[C@@H](NC(=O)N3CCCC3)C2)nc1-c1c[nH]c2c(F)cc(F)cc12 (racemic) [Compound 4] | > 25000 | 4 | –
5 | CC(=O)NCc1cc(F)c(N[C@H]2CCC[C@@H](NC(=O)N3CCCC3)C2)nc1-c1c[nH]c2c(F)cc(F)cc12 (racemic) [Compound 6] | > 25000 | 50 | –
6 | O=C(N[C@@H]1CCC[C@H](Nc2nc(-c3c[nH]c4c(F)ccc(F)c34)ncc2F)C1)N1CCCC1 (racemic) [Compound 7] | > 25000 | 460 | –
7 | O=C(N[C@H]1CCC[C@@H](Nc2nc(-c3c[nH]c4c(F)cc(F)cc34)c(-c3nnc[nH]3)cc2F)C1)N1CCCC1 (racemic) [Compound 24] | > 25000 | 420 | –
8 | O=C(N[C@@H]1CCC[C@H](Nc2nc(-c3c[nH]c4c(F)cc(F)cc34)ncc2F)C1)c1ccccn1 (racemic) [Compound 90] | 10900 | 9 | –
9 | Cn1cnc(C(=O)N[C@@H]2CCC[C@H](Nc3nc(-c4c[nH]c5c(F)cc(F)cc45)ncc3F)C2)c1 (racemic) [Compound 92] | 11400 | 4 | –
10 | Cc1nc(C(=O)N[C@@H]2CCC[C@H](Nc3nc(-c4c[nH]c5c(F)cc(F)cc45)ncc3F)C2)c(C)o1 (racemic) [Compound 93] | > 25000 | 39 | –
11 | Cn1cccc1C(=O)N[C@@H]1CCC[C@H](Nc2nc(-c3c[nH]c4c(F)cc(F)cc34)ncc2F)C1 (racemic) [Compound 94] | 18400 | 5 | –
12 | O=C(N[C@@H]1CCC[C@H](Nc2nc(-c3c[nH]c4c(F)cc(F)cc34)ncc2F)C1)c1ccc(F)cn1 (racemic) [Compound 95] | > 25000 | 12 | –
13 | Cc1cc(C(=O)N[C@@H]2CCC[C@H](Nc3nc(-c4c[nH]c5c(F)cc(F)cc45)ncc3F)C2)nn1C (racemic) [Compound 96] | 10500 | 5 | –
14 | O=C(N[C@@H]1CCC[C@H](Nc2nc(-c3c[nH]c4c(F)cc(F)cc34)ncc2F)C1)c1ccno1 (racemic) [Compound 97] | > 22700 | 12 | –
15 | Cc1cc(F)c2[nH]cc(-c3ncc(F)c(N[C@H]4C5CCC(CC5)[C@@H]4C(=O)O)n3)c2c1 (racemic) [Compound 164] | 1700 | 11 | –
16 | N#Cc1cc(F)c2[nH]cc(-c3ncc(F)c(N[C@H]4CCC[C@@H](NC(=O)c5ccccn5)C4)n3)c2c1 (racemic) [Compound 173] | > 25000 | 13 | –
17 | Cn1cnc(C(=O)N[C@@H]2CCC[C@H](Nc3nc(-c4c[nH]c5c(F)cc(C#N)cc45)ncc3F)C2)c1 (racemic) [Compound 174] | > 25000 | 10 | –
18 | Cc1cc(C(=O)N[C@H]2CCC[C@@H](Nc3nc(-c4c[nH]c5c(F)cc(F)cc45)c(C(F)(F)F)cc3F)C2)nn1C (racemic) [Compound 177] | 14700 | 38 | –
19 | O=C(N[C@H]1CCC[C@@H](Nc2nc(-c3c[nH]c4c(F)cc(F)cc34)c(C(F)(F)F)cc2F)C1)c1ncn[nH]1 (racemic) [Compound 178] | 2600 | 10 | –
20 | Cc1nc(C(=O)N[C@H]2CCC[C@@H](Nc3nc(-c4c[nH]c5c(F)cc(F)cc45)c(C(F)(F)F)cc3F)C2)c(C)o1 (racemic) [Compound 179] | > 25000 | 81 | –

Row | SMILES | CC50 at 3 days (in vitro) [nM] | IC50 ([1]; MDCK, 72 h) [nM] | IC50 [1] [nM]
21 | O=C(N[C@H]1CCC[C@@H](Nc2nc(-c3c[nH]c4c(F)cc(F)cc34)c(C(F)(F)F)cc2F)C1)c1cnccn1 (racemic) [Compound 180] | > 25000 | 20 | –
22 | Cc1cc(C(=O)N[C@H]2CCC[C@@H](Nc3nc(-c4c[nH]c5c(F)cc(F)cc45)c(C(F)(F)F)cc3F)C2)on1 (racemic) [Compound 181] | 16400 | 11 | –
23 | CC(C)c1cc(C(=O)N[C@H]2CCC[C@@H](Nc3nc(-c4c[nH]c5c(F)cc(F)cc45)c(C(F)(F)F)cc3F)C2)no1 (racemic) [Compound 182] | > 25000 | – | –
24 | Cn1cnc(C(=O)N[C@H]2CCC[C@@H](Nc3nc(-c4c[nH]c5c(F)cc(Cl)cc45)c(C#N)cc3F)C2)c1 (racemic) [Compound 189] | 7300 | 4 | –
25 | Cc1cc(F)c2[nH]cc(-c3ncc(F)c(N[C@H]4CCC[C@@H](NC(=O)c5cn(C)cn5)C4)n3)c2c1 (racemic) [Compound 190] | 13100 | 11 | –
26 | N#Cc1cc(F)c(N[C@H]2CCC[C@@H](NC(=O)c3ccccn3)C2)nc1-c1c[nH]c2c(F)cc(F)cc12 (racemic) [Compound 208] | > 25000 | 6 | –
27 | Cc1cc(C(=O)N[C@@H]2CCC[C@H](Nc3nc(-c4c[nH]c5c(F)cc(F)cc45)c(C#N)cc3F)C2)nn1C (racemic) [Compound 210] | > 25000 | – | 12
28 | O=C(O)[C@H]1[C@@H]2CC[C@@H](C2)[C@@H]1Nc1nc(-c2c[nH]c3c(F)cc(F)cc23)ncc1F (racemic) [Compound 217, (+/−)-(2-exo, 3-endo)-3-((2-(5,7-difluoro-1H-indol-3-yl)-5-fluoropyrimidin-4-yl)amino)bicyclo[2.2.1]heptane-2-carboxylic Acid] | 5000 | 22 | –
29 | CC[C@]1(C(=O)O)CCCC[C@@H]1Nc1nc(-c2c[nH]c3c(F)cc(F)cc23)ncc1F (racemic) [Compound 252] | 8200 | 350 | –
30 | CC(=O)NCc1cc(F)c(N[C@H]2CCC[C@@H](NC(=O)c3cn(C)cn3)C2)nc1-c1c[nH]c2c(F)cc(F)cc12 (racemic) [Compound 258] | > 25000 | 160 | –
31 | O=C(N[C@@H]1CCC[C@H](Nc2nc(-c3c[nH]c4c(F)cc(C(F)(F)F)cc34)ncc2F)C1)c1ccccn1 (racemic) [Compound 263] | 3900 | 15 | –
32 | C[C@@H]1CC[C@H](C)N1C(=O)N[C@H]1CCC[C@@H](Nc2nc(-c3c[nH]c4c(F)cc(F)cc34)ncc2F)C1 (relative stereo) [Compound 13, N-((1R*,3S*)-3-((2-(5,7-difluoro-1H-indol-3-yl)-5-fluoropyrimidin-4-yl)-amino)cyclohexyl)-cis-2,5-dimethylpyrrolidine-1-carboxamide] | 10700 | 44 | –
33 | C[C@H]1CC[C@H](C)N1C(=O)N[C@H]1CCC[C@@H](Nc2nc(-c3c[nH]c4c(F)cc(F)cc34)ncc2F)C1 (relative stereo) [Compound 14, N-((1R*3S*)-3-((2-(5,7-difluoro-1H-indol-3-yl)-5-fluoropyrimidin-4-yl)amino)cyclohexyl)-trans-2,5-dimethylpyrrolidine-1-carboxamide] | 10400 | 140 | –
34 | O=C(NC1CCOC1)N[C@@H]1CCC[C@H](Nc2nc(-c3c[nH]c4c(F)cc(F)cc34)ncc2F)C1 (relative stereo) [Compound 15, 1-((1R*,3S*)-3-((2-(5,7-difluoro-1H-indol-3-yl)-5-fluoropyrimidin-4-yl)-amino)cyclohexyl)-3-(tetrahydrofuran-3-yl)urea] | > 25000 | 42 | –
35 | Cn1cnc(C(=O)N[C@H]2CCC[C@@H](Nc3nc(-c4c[nH]c5c(F)cc(F)cc45)c(C(F)(F)F)cc3F)C2)c1 (relative stereo) [Compound 16, N-((1S*,3R*)-3-((6-(5,7-difluoro-1H-indol-3-yl)-3-fluoro-5-(trifluoromethyl)pyridin-2-yl)amino)cyclohexyl)-1-methyl-1H-imidazole-4-carboxamide] | 3900 | 22 | –
36 | Cn1nc(C(=O)O)cc1C(=O)N[C@@H]1CCC[C@H](Nc2nc(-c3c[nH]c4c(F)cc(F)cc34)ncc2F)C1 (relative stereo) [Compound 159, 5-(((1R*,3S*)-3-((2-(5,7-difluoro-1H-indol-3-yl)-5-fluoropyrimidin-4-yl)amino)cyclohexyl)carbamoyl)-1-methyl-1H-pyrazole-3-carboxylic acid] | > 25000 | 310 | –
37 | Cn1nc(NS(C)(=O)=O)cc1C(=O)N[C@@H]1CCC[C@H](Nc2nc(-c3c[nH]c4c(F)cc(F)cc34)ncc2F)C1 (relative stereo) [Compound 226, N-((1R*,3S*)-3-((2-(5,7-difluoro-1H-indol-3-yl)-5-fluoropyrimidin-4-yl)-amino)cyclohexyl)-1-methyl-3-(methylsulfonamido)-1H-pyrazole-5-carboxamide] | 17500 | 3 | –
38 | Cn1nc(NS(N)(=O)=O)cc1C(=O)N[C@@H]1CCC[C@H](Nc2nc(-c3c[nH]c4c(F)cc(F)cc34)ncc2F)C1 (relative stereo) [Compound 227, N-((1R*,3S*)-3-((2-(5,7-difluoro-1H-indol-3-yl)-5-fluoropyrimidin-4-yl)-amino)cyclohexyl)-1-methyl-3-(sulfamoylamino)-1H-pyrazole-5-carboxamide] | > 25000 | 15 | –
39 | CC(=O)Nc1cc(C(=O)N[C@@H]2CCC[C@H](Nc3nc(-c4c[nH]c5c(F)cc(F)cc45)ncc3F)C2)n(C)n1 (relative stereo) [Compound 228, 3-acetamido-N-((1R*,3S*)-3-((2-(5,7-difluoro-1H-indol-3-yl)-5-fluoropyrimidin-4-yl)amino)cyclohexyl)-1-methyl-1H-pyrazole-5-carboxamide] | > 25000 | 9 | –

Source: patent publication US10597390B2, “Indoles for use in influenza virus infection” (Janssen Sciences Ireland UC, priority 2014, dated 2020)
